Read-outs that look alike come from different tables or passages of the source.
How the values were obtained:
CYP2D6 = CYP2D6 (Homo sapiens, UniProt P10635); test: P450 cocktail inhibition assay, CYP2D6; format: in vitro ADME; conditions: at 10 μM
Method: P450s inhibition for four major isoforms are evaluated using a cocktail inhibition assay where the metabolism of specific marker substrate (CYP1A2 phenaceten […] to acetaminophen); CYP2C9, tolbutamide hydroxylation to hydrocytolbutamide; CYP2D6, bufuralol hydroxylation to […]; and CYP3A4, midazolam hydroxylation to 1′-Hydroxymidazolam) in the presence or absence of 10 TM probe compound is evaluated. The concentration of each marker substrate is approximately its Km. […] Specific inhibitors for each isoform are included in each run to validate the system.

[1] = molecular target: T1, panel of 374 wild-type kinases (Homo sapiens, UniProt P08069); test: biochemical; conditions: read-out: % Enzyme Activity (relative to DMSO controls), IGF1R
T1 construct: purchased Reaction Biology Corporation

[2] = molecular target: T2, panel of 374 wild-type kinases (Homo sapiens, UniProt P42685); test: biochemical; conditions: read-out: % Enzyme Activity (relative to DMSO controls), FRK/PTK5
T2 construct: purchased Reaction Biology Corporation

[3] = molecular target: T3, panel of 374 wild-type kinases (Homo sapiens, UniProt P36507); test: biochemical; conditions: read-out: % Enzyme Activity (relative to DMSO controls), MEK2
T3 construct: purchased Reaction Biology Corporation

[4] = molecular target: T4, panel of 374 wild-type kinases (Homo sapiens, UniProt P57059); test: biochemical
T4 construct: purchased Reaction Biology Corporation

[5] = molecular target: T5, panel of 374 wild-type kinases (Homo sapiens, UniProt P06213); test: biochemical; conditions: read-out: % Enzyme Activity (relative to DMSO controls), IR
T5 construct: purchased Reaction Biology Corporation

[6] = molecular target: T6, panel of 374 wild-type kinases (Homo sapiens, UniProt P10398); test: biochemical; conditions: read-out: % Enzyme Activity (relative to DMSO controls), ARAF
T6 construct: purchased Reaction Biology Corporation
T6 sequence (P10398 1-606): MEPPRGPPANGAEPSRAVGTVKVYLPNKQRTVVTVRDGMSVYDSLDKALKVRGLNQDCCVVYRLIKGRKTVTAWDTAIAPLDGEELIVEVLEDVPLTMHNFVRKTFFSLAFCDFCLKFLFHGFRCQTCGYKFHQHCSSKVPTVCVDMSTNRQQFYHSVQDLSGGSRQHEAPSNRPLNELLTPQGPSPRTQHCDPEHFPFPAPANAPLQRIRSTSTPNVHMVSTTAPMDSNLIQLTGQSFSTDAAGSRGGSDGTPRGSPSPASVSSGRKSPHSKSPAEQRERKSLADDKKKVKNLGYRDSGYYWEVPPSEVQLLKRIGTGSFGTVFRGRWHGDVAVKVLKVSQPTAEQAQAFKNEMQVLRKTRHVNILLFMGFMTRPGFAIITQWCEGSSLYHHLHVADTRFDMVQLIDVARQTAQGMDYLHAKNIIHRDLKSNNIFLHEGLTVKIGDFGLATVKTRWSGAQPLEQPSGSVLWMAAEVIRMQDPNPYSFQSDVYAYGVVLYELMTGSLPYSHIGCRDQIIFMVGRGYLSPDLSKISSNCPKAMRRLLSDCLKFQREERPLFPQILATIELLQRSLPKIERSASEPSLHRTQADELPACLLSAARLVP

[7] = molecular target: T7, panel of 374 wild-type kinases (Homo sapiens, UniProt Q15139); test: biochemical; conditions: read-out: % Enzyme Activity (relative to DMSO controls), kinase PKCmu/PRKD1
T7 construct: purchased Reaction Biology Corporation
T7 sequence (Q15139 1-912): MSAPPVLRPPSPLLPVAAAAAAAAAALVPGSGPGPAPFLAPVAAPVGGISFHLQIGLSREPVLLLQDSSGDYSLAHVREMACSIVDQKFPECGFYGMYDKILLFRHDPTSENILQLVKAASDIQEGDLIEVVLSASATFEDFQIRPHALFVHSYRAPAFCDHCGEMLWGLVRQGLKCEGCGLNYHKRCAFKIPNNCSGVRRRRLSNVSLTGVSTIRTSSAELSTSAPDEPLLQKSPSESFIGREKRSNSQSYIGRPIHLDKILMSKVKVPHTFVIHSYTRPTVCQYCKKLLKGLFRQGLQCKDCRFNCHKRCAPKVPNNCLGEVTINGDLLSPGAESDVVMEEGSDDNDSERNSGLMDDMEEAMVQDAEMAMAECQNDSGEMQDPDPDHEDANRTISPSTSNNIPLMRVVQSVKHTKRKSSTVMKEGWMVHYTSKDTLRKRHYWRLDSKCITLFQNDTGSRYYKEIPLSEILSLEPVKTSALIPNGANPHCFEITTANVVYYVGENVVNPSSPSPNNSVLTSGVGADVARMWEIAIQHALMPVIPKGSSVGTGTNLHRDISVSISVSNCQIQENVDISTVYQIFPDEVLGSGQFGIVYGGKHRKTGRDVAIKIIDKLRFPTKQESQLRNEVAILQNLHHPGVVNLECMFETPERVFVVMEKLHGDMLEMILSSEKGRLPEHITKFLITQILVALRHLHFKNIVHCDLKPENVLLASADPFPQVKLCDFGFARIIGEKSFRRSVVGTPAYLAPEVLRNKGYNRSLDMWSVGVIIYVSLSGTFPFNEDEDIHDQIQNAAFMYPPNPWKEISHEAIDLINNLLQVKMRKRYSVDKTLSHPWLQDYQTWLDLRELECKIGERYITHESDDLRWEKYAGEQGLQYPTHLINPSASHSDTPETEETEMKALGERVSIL

[8] = molecular target: T8, panel of 374 wild-type kinases (Homo sapiens, UniProt Q02763); test: biochemical; conditions: read-out: % Enzyme Activity (relative to DMSO controls), kinase TIE2/TEK
T8 construct: purchased Reaction Biology Corporation

[9] = molecular target: T9, panel of 374 wild-type kinases (Homo sapiens, UniProt Q96RR4); test: biochemical; conditions: read-out: % Enzyme Activity (relative to DMSO controls), CAMKK2
T9 construct: purchased Reaction Biology Corporation

[10] = molecular target: T10, panel of 374 wild-type kinases (Homo sapiens, UniProt P49761); test: biochemical; conditions: read-out: % Enzyme Activity (relative to DMSO controls), CLK3
T10 construct: purchased Reaction Biology Corporation

[11] = Microsomal stability, mouse; format: in vitro ADME; conditions: mouse microsomes
[12] = Microsomal stability, human; format: in vitro ADME; conditions: human microsomes

T4 sequence (P57059 whole entry): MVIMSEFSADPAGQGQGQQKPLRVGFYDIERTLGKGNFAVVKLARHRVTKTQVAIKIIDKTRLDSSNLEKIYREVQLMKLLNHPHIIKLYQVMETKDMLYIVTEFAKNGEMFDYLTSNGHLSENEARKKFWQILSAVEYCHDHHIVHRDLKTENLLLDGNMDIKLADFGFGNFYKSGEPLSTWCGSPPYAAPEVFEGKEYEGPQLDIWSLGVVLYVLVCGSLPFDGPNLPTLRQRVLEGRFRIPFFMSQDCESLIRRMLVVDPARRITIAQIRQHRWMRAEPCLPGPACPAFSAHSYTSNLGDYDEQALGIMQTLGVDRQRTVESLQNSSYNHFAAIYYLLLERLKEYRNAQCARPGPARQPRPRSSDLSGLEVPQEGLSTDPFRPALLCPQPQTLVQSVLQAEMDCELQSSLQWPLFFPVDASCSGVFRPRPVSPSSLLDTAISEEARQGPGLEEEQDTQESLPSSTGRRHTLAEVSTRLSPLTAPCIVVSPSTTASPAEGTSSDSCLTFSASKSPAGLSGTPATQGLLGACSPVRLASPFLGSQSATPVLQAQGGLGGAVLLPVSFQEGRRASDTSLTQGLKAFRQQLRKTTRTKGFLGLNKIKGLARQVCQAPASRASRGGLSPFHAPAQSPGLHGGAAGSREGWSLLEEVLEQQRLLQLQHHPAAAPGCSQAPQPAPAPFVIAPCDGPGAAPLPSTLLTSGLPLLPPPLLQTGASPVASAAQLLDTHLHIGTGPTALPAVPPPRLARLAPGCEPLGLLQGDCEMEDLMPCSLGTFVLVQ
T1 sequence (P08069 31-1367): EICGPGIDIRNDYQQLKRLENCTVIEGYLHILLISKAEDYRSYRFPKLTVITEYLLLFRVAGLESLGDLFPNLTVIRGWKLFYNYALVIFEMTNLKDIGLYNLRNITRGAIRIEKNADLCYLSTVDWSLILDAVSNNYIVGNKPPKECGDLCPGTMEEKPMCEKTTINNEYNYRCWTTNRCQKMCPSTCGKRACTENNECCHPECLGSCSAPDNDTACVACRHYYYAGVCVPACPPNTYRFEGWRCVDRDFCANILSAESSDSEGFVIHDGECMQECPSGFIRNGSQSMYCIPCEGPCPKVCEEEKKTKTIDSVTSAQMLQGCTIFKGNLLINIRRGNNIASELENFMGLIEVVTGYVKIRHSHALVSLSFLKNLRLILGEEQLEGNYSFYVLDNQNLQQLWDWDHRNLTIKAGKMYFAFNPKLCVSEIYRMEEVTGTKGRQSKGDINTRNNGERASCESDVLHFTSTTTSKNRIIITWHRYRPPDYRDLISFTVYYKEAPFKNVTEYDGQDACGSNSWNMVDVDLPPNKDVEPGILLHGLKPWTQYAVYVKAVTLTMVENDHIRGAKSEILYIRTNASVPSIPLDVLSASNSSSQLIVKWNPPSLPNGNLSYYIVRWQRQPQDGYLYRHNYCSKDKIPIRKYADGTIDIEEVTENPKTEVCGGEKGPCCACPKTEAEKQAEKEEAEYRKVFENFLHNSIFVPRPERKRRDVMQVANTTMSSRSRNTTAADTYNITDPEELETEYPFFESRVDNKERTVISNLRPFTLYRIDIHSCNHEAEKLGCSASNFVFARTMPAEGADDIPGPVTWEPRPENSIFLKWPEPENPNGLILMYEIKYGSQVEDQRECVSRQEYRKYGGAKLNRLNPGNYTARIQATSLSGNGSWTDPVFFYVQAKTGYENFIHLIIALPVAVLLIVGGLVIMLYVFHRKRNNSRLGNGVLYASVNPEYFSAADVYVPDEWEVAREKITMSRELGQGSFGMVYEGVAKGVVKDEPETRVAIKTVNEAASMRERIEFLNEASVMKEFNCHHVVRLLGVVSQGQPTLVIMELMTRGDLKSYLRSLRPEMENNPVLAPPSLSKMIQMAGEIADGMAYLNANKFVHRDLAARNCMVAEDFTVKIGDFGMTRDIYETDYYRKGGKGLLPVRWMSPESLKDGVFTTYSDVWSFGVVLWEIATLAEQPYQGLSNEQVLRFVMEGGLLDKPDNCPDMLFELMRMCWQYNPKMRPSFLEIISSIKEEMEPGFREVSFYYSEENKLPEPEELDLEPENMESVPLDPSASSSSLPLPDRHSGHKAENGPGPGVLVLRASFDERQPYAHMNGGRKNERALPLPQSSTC
CYP2D6, sequence (P10635 whole entry, canonical isoform): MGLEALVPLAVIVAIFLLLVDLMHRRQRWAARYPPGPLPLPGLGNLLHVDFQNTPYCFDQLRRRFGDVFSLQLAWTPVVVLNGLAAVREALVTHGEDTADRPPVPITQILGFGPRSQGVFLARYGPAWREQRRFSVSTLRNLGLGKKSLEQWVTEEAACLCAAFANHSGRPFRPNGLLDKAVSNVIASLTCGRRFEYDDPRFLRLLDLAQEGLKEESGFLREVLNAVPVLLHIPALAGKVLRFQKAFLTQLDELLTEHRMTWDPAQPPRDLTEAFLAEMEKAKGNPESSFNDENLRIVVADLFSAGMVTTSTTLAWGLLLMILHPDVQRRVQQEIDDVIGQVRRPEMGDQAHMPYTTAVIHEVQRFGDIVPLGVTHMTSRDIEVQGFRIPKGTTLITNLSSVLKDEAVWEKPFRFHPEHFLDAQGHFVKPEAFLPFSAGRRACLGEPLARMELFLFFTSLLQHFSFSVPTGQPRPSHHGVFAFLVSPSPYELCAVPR
T10 sequence (P49761 whole entry): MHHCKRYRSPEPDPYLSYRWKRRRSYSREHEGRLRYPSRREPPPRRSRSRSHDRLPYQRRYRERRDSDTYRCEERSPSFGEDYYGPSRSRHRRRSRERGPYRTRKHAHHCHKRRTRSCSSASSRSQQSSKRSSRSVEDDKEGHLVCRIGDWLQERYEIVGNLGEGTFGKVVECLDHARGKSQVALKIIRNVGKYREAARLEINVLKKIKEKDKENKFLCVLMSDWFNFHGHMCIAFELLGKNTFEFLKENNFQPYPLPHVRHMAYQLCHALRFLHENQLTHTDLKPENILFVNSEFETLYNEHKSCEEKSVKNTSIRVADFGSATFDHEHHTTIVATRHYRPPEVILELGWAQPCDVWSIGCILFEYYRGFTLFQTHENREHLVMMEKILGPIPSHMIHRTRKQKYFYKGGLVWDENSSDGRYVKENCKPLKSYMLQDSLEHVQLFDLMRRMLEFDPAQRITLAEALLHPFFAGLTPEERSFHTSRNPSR
T8 sequence (Q02763 23-1124): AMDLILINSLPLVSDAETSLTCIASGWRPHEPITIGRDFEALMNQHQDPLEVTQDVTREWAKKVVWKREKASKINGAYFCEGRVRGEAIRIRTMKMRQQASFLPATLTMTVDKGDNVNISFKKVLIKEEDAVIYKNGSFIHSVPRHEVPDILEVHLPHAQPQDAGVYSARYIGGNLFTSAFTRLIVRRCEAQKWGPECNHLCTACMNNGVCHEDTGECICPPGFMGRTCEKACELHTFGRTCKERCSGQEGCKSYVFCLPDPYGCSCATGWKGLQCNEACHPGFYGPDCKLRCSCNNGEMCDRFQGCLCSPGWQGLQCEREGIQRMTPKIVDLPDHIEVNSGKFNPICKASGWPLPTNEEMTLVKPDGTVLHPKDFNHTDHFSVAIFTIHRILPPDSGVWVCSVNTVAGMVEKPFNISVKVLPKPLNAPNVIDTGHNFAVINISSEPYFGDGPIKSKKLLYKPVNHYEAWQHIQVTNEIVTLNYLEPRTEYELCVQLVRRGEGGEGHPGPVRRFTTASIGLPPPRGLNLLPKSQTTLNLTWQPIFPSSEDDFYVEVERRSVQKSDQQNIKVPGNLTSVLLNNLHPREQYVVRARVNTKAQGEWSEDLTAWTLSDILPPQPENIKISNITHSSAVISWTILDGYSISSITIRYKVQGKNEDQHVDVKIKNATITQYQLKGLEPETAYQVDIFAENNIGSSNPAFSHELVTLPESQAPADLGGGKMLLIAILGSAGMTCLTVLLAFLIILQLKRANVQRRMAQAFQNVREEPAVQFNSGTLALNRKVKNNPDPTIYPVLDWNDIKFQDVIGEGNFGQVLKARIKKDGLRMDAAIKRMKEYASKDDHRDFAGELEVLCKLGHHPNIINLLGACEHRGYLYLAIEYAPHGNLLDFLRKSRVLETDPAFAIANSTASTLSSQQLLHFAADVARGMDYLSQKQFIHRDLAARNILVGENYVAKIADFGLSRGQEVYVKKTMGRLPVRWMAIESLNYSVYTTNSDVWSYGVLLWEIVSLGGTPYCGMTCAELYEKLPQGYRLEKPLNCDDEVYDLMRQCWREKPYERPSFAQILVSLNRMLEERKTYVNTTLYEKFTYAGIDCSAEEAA
T3 sequence (P36507 whole entry): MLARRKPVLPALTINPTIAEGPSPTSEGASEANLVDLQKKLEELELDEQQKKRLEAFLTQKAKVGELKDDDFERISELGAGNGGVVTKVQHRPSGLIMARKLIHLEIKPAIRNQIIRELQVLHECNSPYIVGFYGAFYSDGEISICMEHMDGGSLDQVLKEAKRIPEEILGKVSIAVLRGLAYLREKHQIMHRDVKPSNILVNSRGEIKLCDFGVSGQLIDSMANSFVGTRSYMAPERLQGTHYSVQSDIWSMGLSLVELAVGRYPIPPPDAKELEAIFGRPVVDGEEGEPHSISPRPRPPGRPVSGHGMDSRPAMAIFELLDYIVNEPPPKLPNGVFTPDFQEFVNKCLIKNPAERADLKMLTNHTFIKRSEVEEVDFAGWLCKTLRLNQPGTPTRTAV

In the case of `Cc1sc(C(=O)NC2COC2)cc1-n1cc(NC(=O)Nc2c(F)cccc2Cl)cn1` [Compound 27, 4-(4-(3-(2-chloro-6-fluorophenyl)ureido)-1H-pyrazol-1-yl)-5-methyl-N-(oxetan-3-yl)thiophene-2-carboxamide], the “CYP-450 % inh. 2D6” value (CYP2D6) is reported as 1%, the remaining activity at 10 µM ([1]; 10 uM) is reported as 102% and the remaining activity at 10 µM ([2]; 10 uM) is reported as 87.3%. It also gave a remaining activity at 10 µM ([3]; 10 uM) of 99.5%, a remaining activity at 10 µM ([4]; read-out: % Enzyme Activity (relative to DMSO controls), kinase SIK1, 10 uM) of 99.8% and a remaining activity at 10 µM ([5]; 10 uM) of 85.5%. For the same molecule, the remaining activity at 10 µM ([6]; 10 uM) was 84.1%, the remaining activity at 10 µM ([7]; 10 uM) was 93.3% and the remaining activity at 10 µM ([8]; 10 uM) was 86.6%. For the same molecule, the remaining activity at 10 µM ([9]; 10 uM) was 111%, the remaining activity at 10 µM ([10]; 10 uM) was 99.6% and the “Mic. stability t1/2 Mouse” value [11] was 0.95 h. The “Mic. stability t1/2 Human” value [12] was 1.83 h.

With `O=C(Nc1cnn(-c2csc(C(=O)NC3COC3)c2)c1)Nc1c(F)cccc1Cl` [Compound 25, 4-(4-(3-(2-chloro-6-fluorophenyl)ureido)-1H-pyrazol-1-yl)-N-(oxetan-3-yl)thiophene-2-carboxamide] the “CYP-450 % inh. 2D6” value (CYP2D6) was 31%, the remaining activity at 5 µM [1] was 94.9% and the remaining activity at 5 µM [2] was 95.6%. For the same molecule, the remaining activity at 5 µM [3] was 90.6%, the remaining activity at 5 µM ([4]; kinase SIK1, read-out: % Enzyme Activity (relative to DMSO controls)) was 98.3% and the remaining activity at 5 µM [5] was 102%. It also gave a remaining activity at 5 µM [6] of 94.4%, a remaining activity at 5 µM [7] of 90.7% and a remaining activity at 5 µM [8] of 105%. For the same molecule, the remaining activity at 5 µM [9] was 81%, the remaining activity at 5 µM [10] was 93.5% and the “Mic. stability t1/2 Mouse” value [11] was 1.2 h. For the same molecule, the “Mic. stability t1/2 Human” value [12] was 1.67 h.

With `O=C(Nc1cnn(-c2csc(C(=O)NC3COC3)c2)c1)Nc1ccccc1Cl` [Compound 17, 4-(4-(3-(2-chlorophenyl)ureido)-1H-pyrazol-1-yl)-N-(oxetan-3-yl)thiophene-2-carboxamide] the “CYP-450 % inh. 2D6” value (CYP2D6) was −15%, the remaining activity at 5 µM [1] was 95.8% and the remaining activity at 5 µM [2] was 97.4%. It also gave a remaining activity at 5 µM [3] of 92.2%, a remaining activity at 5 µM ([4]; read-out: % Enzyme Activity (relative to DMSO controls), kinase SIK1) of 102% and a remaining activity at 5 µM [5] of 98.4%. It also gave a remaining activity at 5 µM [6] of 95.1%, a remaining activity at 5 µM [7] of 114% and a remaining activity at 5 µM [8] of 100%. The remaining activity at 5 µM [9] was 91.1%, the remaining activity at 5 µM [10] was 120% and the “Mic. stability t1/2 Mouse” value [11] was 0.4 h. For the same molecule, the “Mic. stability t1/2 Human” value [12] was 1.1 h.

Source: patent US20240246942A1, “KINASE INHIBITORS FOR THE TREATMENT OF NEURODEGENERATIVE DISEASES” (priority 2020, published 2024)
